Source: ChEMBL document CHEMBL3421569, “Stemistry: the control of stem cells in situ using chemistry” (2015)

How the values were obtained:
[1] = Induction of human ESC differentiation assessed as appearance of pigmented area measured over 8 weeks relative to control; assay type: functional, Embryonic stem cell
[2] = Induction of human ESC differentiation assessed as increase in microphthalmia-associated transcription factor expression measured over 8 weeks relative to total pigmented area; assay type: functional, Embryonic stem cell

In the case of NC(=O)c1cccnc1 [NIACINAMIDE], the Activity [1] is reported as >70% and the Activity [2] is reported as 5%.
